Data reported in patent publication US11051515B2, “3-acyl-benzamides and their use as herbicides” (Bayer Aktiengesellschaft, priority 2017, dated 2021).

Legend:
ECHCG [1] = experiment: Post-emergence action against ECHCG; type: in vivo, Echinochloa crus-galli; conditions: post-emergence, dosage 80 g/ha, visual assessment about 3 weeks after treatment vs untreated controls
Summary of the method: (§1)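 Weeds grown in sandy loam in greenhouse, treated at one-leaf stage (2–3 weeks after sowing) with WP or EC formulations sprayed as aqueous suspension/emulsion at 600 to […] water with 0.2% wetting agent. Visual rating after about 3 weeks versus untreated controls, as % herbicidal action (100% = plants dead, 0% = like control).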

AVEFA [2] = experiment: Post-emergence action against AVEFA; type: in vivo, Avena fatua; conditions: post-emergence, dosage 80 g/ha, visual assessment about 3 weeks after treatment vs untreated controls
Summary of the method: as §1

AVEFA [3] = experiment: Pre-emergence action against AVEFA; type: in vivo, Avena fatua; conditions: dosage 320 g/ha, scored visually after 3 weeks vs untreated controls
Summary of the method: (§2)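 Seeds sown in sandy loam in wood-fiber pots and covered with soil. Greenhouse growth; visual damage scored after 3 weeks versus untreated controls (100% = dead, 0% = like control).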

ABUTH [4] = experiment: Pre-emergence action against ABUTH; type: in vivo, Abutilon theophrasti; conditions: pre-emergence, dosage 320 g/ha, scored visually after 3 weeks vs untreated controls
Summary of the method: as §2

MATIN [5] = experiment: Pre-emergence action against MATIN; type: in vivo, Matricaria inodora; conditions: Dosage 320 g/ha, pre-emergence
Summary of the method: as §2

PHBPU [6] = experiment: Post-emergence action against PHBPU; type: in vivo, Pharbitis purpurea; conditions: post-emergence, dosage 80 g/ha
Summary of the method: as §1

AMARE [7] = experiment: Post-emergence action against AMARE; type: in vivo, Amaranthus retroflexus; conditions: post-emergence, dosage 80 g/ha, visual assessment about 3 weeks after treatment vs untreated controls
Summary of the method: as §1

ALOMY [8] = experiment: Pre-emergence action against ALOMY; type: in vivo, Alopecurus myosuroides; conditions: dosage 320 g/ha, pre-emergence, scored visually after 3 weeks vs untreated controls, 100% = plants have died, 0% = like control plants
Summary of the method: as §2

DIGSA [9] = experiment: Post-emergence action against DIGSA; type: in vivo, Digitaria sanguinalis; conditions: dosage 80 g/ha, visual assessment about 3 weeks after treatment vs untreated controls
Experimental: Seeds of monocotyledonous and dicotyledonous weed and crop plants are laid out in sandy loam soil in wood-fiber pots, covered with soil and cultivated in a greenhouse under good growth conditions. 2 to 3 weeks after sowing, the test plants are treated at the one-leaf stage. The compounds of the invention, formulated in the form of wettable powders (WP) or as emulsion concentrates (EC), are then sprayed onto the green parts of the plants in the form of an aqueous suspension or emulsion at a water application rate equating to […], with addition of 0.2% wetting agent. After the test plants have been left to stand in the greenhouse under optimal growth conditions for about 3 weeks, the action of the preparations is assessed visually in comparison to untreated controls (herbicidal action in percent (%): 100% activity=the plants have died, 0% activity=like control plants). […] At the same time, inventive compounds leave Gramineae crops such as barley, wheat, rye, millet/Sorghum, corn or rice virtually undamaged when applied post-emergence, even at high active ingredient dosages. In addition, some substances are also harmless to dicotyledonous crops such as soya, cotton, oilseed rape, sugar beet or potatoes. Some of the compounds according to the invention have high selectivity and are therefore suitable for controlling unwanted vegetation in agricultural crops by the post-emergence method. The data of Tables B18 to B34 below illustrate, in an exemplary manner, the […] herbicidal action of the compounds according to the invention, the herbicidal activity being stated in percent.

AMARE [10] = experiment: Pre-emergence action against AMARE; type: in vivo, Amaranthus retroflexus; conditions: pre-emergence, dosage 320 g/ha, scored visually after 3 weeks vs untreated controls
Summary of the method: as §2

SETVI [11] = experiment: Pre-emergence action against SETVI; type: in vivo, Setaria viridis; conditions: pre-emergence, dosage 320 g/ha, scored visually after 3 weeks vs untreated controls
Summary of the method: as §2

MATIN [12] = experiment: Post-emergence action against MATIN; type: in vivo, Matricaria inodora; conditions: post-emergence, dosage 80 g/ha, visual assessment about 3 weeks after treatment vs untreated controls
Summary of the method: as §1

PHBPU [13] = experiment: Pre-emergence action against PHBPU; type: in vivo, Pharbitis purpurea; conditions: Dosage 320 g/ha, pre-emergence
Summary of the method: as §2

SETVI [14] = experiment: Post-emergence action against SETVI; type: in vivo, Setaria viridis; conditions: post-emergence, dosage 80 g/ha, visual assessment about 3 weeks after treatment vs untreated controls
Summary of the method: as §1

STEME [15] = experiment: Post-emergence action against STEME; type: in vivo, Stellaria media; conditions: post-emergence, dosage 80 g/ha
Summary of the method: as §1

VIOTR [16] = experiment: Post-emergence action against VIOTR; type: in vivo, Viola tricolor; conditions: post-emergence, dosage 80 g/ha
Summary of the method: as §1

ECHCG [17] = experiment: Pre-emergence action against ECHCG; type: in vivo, Echinochloa crus-galli; conditions: pre-emergence, dosage 320 g/ha, scored visually after 3 weeks vs untreated controls
Summary of the method: as §2

ABUTH [18] = experiment: Post-emergence action against ABUTH; type: in vivo, Abutilon theophrasti; conditions: post-emergence, dosage 80 g/ha, visual assessment about 3 weeks after treatment vs untreated controls
Summary of the method: as §1

VERPE [19] = experiment: Post-emergence action against VERPE; type: in vivo, Veronica persica; conditions: dosage 80 g/ha
Summary of the method: as §1

VERPE [20] = experiment: Pre-emergence action against VERPE; type: in vivo, Veronica persica; conditions: Dosage 320 g/ha, pre-emergence
Summary of the method: as §2

ALOMY [21] = experiment: Post-emergence action against ALOMY; type: in vivo, Alopecurus myosuroides; conditions: Dosage 80 g/ha, post-emergence
Summary of the method: as §1

VIOTR [22] = experiment: Pre-emergence action against VIOTR; type: in vivo, Viola tricolor; conditions: Dosage 320 g/ha, pre-emergence
Summary of the method: as §2

DIGSA [23] = experiment: Pre-emergence action against DIGSA; type: in vivo, Digitaria sanguinalis; conditions: dosage 320 g/ha, scored visually after 3 weeks vs untreated controls
Summary of the method: as §2

STEME [24] = experiment: Pre-emergence action against STEME; type: in vivo, Stellaria media; conditions: Dosage 320 g/ha, pre-emergence
Summary of the method: as §2

LOLRI = experiment: Pre-emergence action against LOLRI; type: in vivo, Lolium rigidum; conditions: dosage 320 g/ha, scored visually after 3 weeks vs untreated controls
Summary of the method: as §2

POLCO = experiment: Pre-emergence action against POLCO; type: in vivo, Polygonum convolvulus; conditions: Fallopia convolvulus, 504 h; Dosage 320 g/ha, pre-emergence
Summary of the method: as §2

HORMU = experiment: Pre-emergence action against HORMU; type: in vivo, Hordeum murinum; conditions: Hordeum murinum, 504 h, Dosage 320 g/ha
Summary of the method: as §2

## Cc1c(C(=O)Nc2nnnn2C)ccc(C(F)(F)F)c1C(=O)CCl [1-22]
ECHCG [1]
  Post-emergence action against ECHCG (herbicidal action in percent): 90%
AVEFA [2]
  Post-emergence action against AVEFA (herbicidal action in percent): 90%
AVEFA [3]
  Pre-emergence action against AVEFA (herbicidal activity): 100%
ABUTH [4]
  Pre-emergence action against ABUTH (herbicidal activity): 100%
MATIN [5]
  Pre-emergence action against MATIN: 100%
PHBPU [6]
  Post-emergence action against PHBPU: 90
AMARE [7]
  Post-emergence action against AMARE (herbicidal action in percent): 90%
ALOMY [8]
  Pre-emergence action against ALOMY (herbicidal activity in percent): 90%
DIGSA [9]
  Post-emergence action against DIGSA (herbicidal action in percent): 100%
AMARE [10]
  Pre-emergence action against AMARE (herbicidal activity): 100%
SETVI [11]
  SETVI (Table B8, pre-emergence herbicidal activity): 100%
MATIN [12]
  Post-emergence action against MATIN (herbicidal action in percent): 90%
PHBPU [13]
  Pre-emergence action against PHBPU: 90%
SETVI [14]
  Post-emergence action against SETVI (herbicidal action in percent): 90%
STEME [15]
  Post-emergence action against STEME: 90
VIOTR [16]
  Post-emergence action against VIOTR: 90
ECHCG [17]
  Pre-emergence action against ECHCG (herbicidal activity): 100%
ABUTH [18]
  Post-emergence action against ABUTH (herbicidal action in percent): 90%
VERPE [19]
  Post-emergence action against VERPE: 80
VERPE [20]
  Pre-emergence action against VERPE: 100%
ALOMY [21]
  Post-emergence action against ALOMY: 90%
VIOTR [22]
  Pre-emergence action against VIOTR: 100%
DIGSA [23]
  Pre-emergence action against DIGSA (herbicidal activity): 100%
STEME [24]
  Pre-emergence action against STEME: 100%
LOLRI
  Pre-emergence action against LOLRI (herbicidal activity): 100%

## CC(=O)C(=O)c1c(C(F)(F)F)ccc(C(=O)Nc2nnnn2C)c1Cl [1-146]
ECHCG [1]; Echinochloa crus-galli, 504 h, read-out: Post-emergence action against ECHCG (herbicidal action in percent)
  pest or weed control at 80 g/ha: 100%
AVEFA [3]; Avena fatua, 504 h, read-out: Pre-emergence action against AVEFA (herbicidal activity)
  pest or weed control at 320 g/ha: 90%
ABUTH [4]; Abutilon theophrasti, 504 h, read-out: Pre-emergence action against ABUTH (herbicidal activity)
  pest or weed control at 320 g/ha: 100%
MATIN [5]; Tripleurospermum inodorum, 504 h
  pest or weed control at 320 g/ha: 100%
PHBPU [6]; Ipomoea purpurea, 504 h
  pest or weed control at 80 g/ha: 80%
AMARE [7]; Amaranthus retroflexus, 504 h, read-out: Post-emergence action against AMARE (herbicidal action in percent)
  pest or weed control at 80 g/ha: 100%
ALOMY [8]; Alopecurus myosuroides, 504 h, read-out: Pre-emergence action against ALOMY (herbicidal activity in percent)
  pest or weed control at 320 g/ha: 90%
DIGSA [9]
  Post-emergence action against DIGSA (herbicidal action in percent): 80%
AMARE [10]; Amaranthus retroflexus, 504 h, read-out: Pre-emergence action against AMARE (herbicidal activity)
  pest or weed control at 320 g/ha: 100%
SETVI [11]; Setaria viridis, 504 h, read-out: SETVI (Table B8, pre-emergence herbicidal activity)
  pest or weed control at 320 g/ha: 100%
MATIN [12]; Tripleurospermum inodorum, 504 h, read-out: Post-emergence action against MATIN (herbicidal action in percent)
  pest or weed control at 80 g/ha: 90%
PHBPU [13]; Ipomoea purpurea, 504 h
  pest or weed control at 320 g/ha: 90%
SETVI [14]; Setaria viridis, 504 h, read-out: Post-emergence action against SETVI (herbicidal action in percent)
  pest or weed control at 80 g/ha: 100%
STEME [15]; Stellaria media, 504 h
  pest or weed control at 80 g/ha: 100%
VIOTR [16]; Viola tricolor, 504 h
  pest or weed control at 80 g/ha: 90%
ECHCG [17]; Echinochloa crus-galli, 504 h, read-out: Pre-emergence action against ECHCG (herbicidal activity)
  pest or weed control at 320 g/ha: 100%
ABUTH [18]; Abutilon theophrasti, 504 h, read-out: Post-emergence action against ABUTH (herbicidal action in percent)
  pest or weed control at 80 g/ha: 100%
VERPE [19]; Veronica persica, 504 h
  pest or weed control at 80 g/ha: 90%
VERPE [20]; Veronica persica, 504 h
  pest or weed control at 320 g/ha: 90%
POLCO
  pest or weed control at 320 g/ha: 80%
VIOTR [22]; Viola tricolor, 504 h
  pest or weed control at 320 g/ha: 100%
DIGSA [23]
  Pre-emergence action against DIGSA (herbicidal activity): 100%
STEME [24]; Stellaria media, 504 h
  pest or weed control at 320 g/ha: 100%
HORMU
  pest or weed control at 320 g/ha: 80%
